Starred links: 1 amine or outer side, 2 acyl side, 3 side chain; linkers in the order of their positions; H or OH if unused. Positions of bridges follow the written chain, without caps; N, C: chain ends. Non-standard residues stand in square brackets, D forms with d. Residues, ends and D or L forms follow the SMILES beside them. Adda = CO[C@@H](Cc1ccccc1)[C@@H](C)/C=C(C)/C=C/[C@H](N[*:1])[C@H](C)C(=O)[*:2]; dAsp(3S-Me) = C[C@H](C(=O)[*:3])[C@@H](N[*:1])C(=O)[*:2]; d(γGlu) = O=C(O)[C@@H](CCC(=O)[*:2])N[*:1]; NMeDha = C=C(NC)C(=O)O
What was measured:
[1] = Inhibition of PP2A (unknown origin) using [3H]-phosphohistone as substrate by liquid scintillation counting analysis; set-up: species or system Homo sapiens
[2] = Inhibition of PP7 (unknown origin) using [3H]-phosphohistone as substrate by liquid scintillation counting analysis; set-up: species or system Homo sapiens
[3] = Inhibition of PP1 (unknown origin) using [3H]-phosphohistone as substrate by liquid scintillation counting analysis; set-up: species or system Homo sapiens
[4] = Inhibition of PP3 (unknown origin) using [3H]-phosphohistone as substrate by liquid scintillation counting analysis; set-up: species or system Homo sapiens
[5] = Inhibition of PP1 (unknown origin); set-up: species or system Homo sapiens
[6] = molecular target: T1, Serine/threonine-protein phosphatase 2A catalytic subunit alpha isoform (Homo sapiens, UniProt P67775); assay: Inhibition of human PP2AC using [3H]-phosphohistone as substrate
T1 sequence (P67775 whole entry, canonical isoform): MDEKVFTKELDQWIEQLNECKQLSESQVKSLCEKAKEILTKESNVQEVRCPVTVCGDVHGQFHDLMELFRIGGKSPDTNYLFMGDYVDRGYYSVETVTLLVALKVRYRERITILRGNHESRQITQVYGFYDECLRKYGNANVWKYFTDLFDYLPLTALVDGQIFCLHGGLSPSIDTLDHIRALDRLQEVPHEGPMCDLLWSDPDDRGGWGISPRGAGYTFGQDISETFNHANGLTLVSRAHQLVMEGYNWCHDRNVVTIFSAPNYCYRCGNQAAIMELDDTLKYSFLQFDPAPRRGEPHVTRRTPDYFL

[7] = Inhibition of rabbit skeletal muscle PP2A using [3H]-phosphohistone as substrate; set-up: species or system Oryctolagus cuniculus
[8] = Inhibition of rabbit skeletal muscle PP1 using [3H]-phosphohistone as substrate; set-up: species or system Oryctolagus cuniculus
[9] = Inhibition of PP3 (unknown origin); set-up: species or system Homo sapiens
[10] = molecular target: T2, Serine/threonine-protein phosphatase 5 (Homo sapiens, UniProt P53041); assay: Inhibition of PP5 (unknown origin)
T2 sequence (P53041 whole entry): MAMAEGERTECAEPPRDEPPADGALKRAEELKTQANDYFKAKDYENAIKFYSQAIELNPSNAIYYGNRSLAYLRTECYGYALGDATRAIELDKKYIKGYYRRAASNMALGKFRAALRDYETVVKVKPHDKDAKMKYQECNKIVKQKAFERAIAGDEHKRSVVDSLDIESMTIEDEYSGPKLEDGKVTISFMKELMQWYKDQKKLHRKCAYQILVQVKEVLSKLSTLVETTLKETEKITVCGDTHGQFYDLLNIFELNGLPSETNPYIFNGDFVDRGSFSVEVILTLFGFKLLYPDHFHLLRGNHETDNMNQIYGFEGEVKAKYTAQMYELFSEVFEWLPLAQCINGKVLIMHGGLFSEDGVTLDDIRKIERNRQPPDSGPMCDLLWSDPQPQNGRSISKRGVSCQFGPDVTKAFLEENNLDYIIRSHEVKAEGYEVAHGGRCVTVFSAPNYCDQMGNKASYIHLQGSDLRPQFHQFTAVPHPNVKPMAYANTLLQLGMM

[11] = Inhibition of porcine testis PP4; set-up: species or system Sus scrofa
Homo sapiens = organism: Homo sapiens; assay: Activation of PP2A (unknown origin) at 1000 nM relative to control; details: filed as activator
[12] = Inhibition of PP7 (unknown origin); set-up: species or system Homo sapiens
[13] = molecular target: T3, Serine/threonine-protein phosphatase 6 catalytic subunit (Homo sapiens, UniProt O00743); assay: Inhibition of PP6 (unknown origin)
T3 sequence (O00743 whole entry): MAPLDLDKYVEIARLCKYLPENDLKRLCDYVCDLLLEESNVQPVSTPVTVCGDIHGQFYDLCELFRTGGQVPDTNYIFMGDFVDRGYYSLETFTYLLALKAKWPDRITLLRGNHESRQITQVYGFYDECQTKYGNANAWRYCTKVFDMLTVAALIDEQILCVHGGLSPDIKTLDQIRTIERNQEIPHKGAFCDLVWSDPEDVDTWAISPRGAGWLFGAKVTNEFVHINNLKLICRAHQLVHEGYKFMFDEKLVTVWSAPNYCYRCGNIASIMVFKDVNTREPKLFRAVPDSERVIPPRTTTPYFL

[14] = Inhibition of PP4 (unknown origin) using [3H]-phosphohistone as substrate by liquid scintillation counting analysis; set-up: species or system Homo sapiens
[15] = molecular target: T3, Serine/threonine-protein phosphatase 6 catalytic subunit; assay: Inhibition of PP6 (unknown origin) using [3H]-phosphohistone as substrate by liquid scintillation counting analysis
[16] = molecular target: T2, Serine/threonine-protein phosphatase 5; assay: Inhibition of human PP5 using [3H]-phosphohistone as substrate
[17] = molecular target: T4, Serine/threonine-protein phosphatase 5 (Homo sapiens) (UniProt P53041); assay: Inhibition of human full length PP5 expressed in Escherichia coli Rosetta gami2(DE3)pLysS at >1 x 10^6nM relative to control; details: dose > 1.0 10^6nM
T4 sequence (whole entry): T2 sequence (P53041 whole entry)

NCI-H358 = assay: Anticancer activity against human NCI-H358 cells; assay type: functional
[18] = Inhibition of PP3 activity in human Jurkat J77 cells assessed as dephosphorylation of substrate; assay type: cell-based
[19] = molecular target: T2, Serine/threonine-protein phosphatase 5; assay: Inhibition of PP5 (unknown origin) using [3H]-phosphohistone as substrate by liquid scintillation counting analysis
[20] = Inhibition of porcine PP4 using [33P]-labelled substrate; set-up: species or system Sus scrofa
[21] = molecular target: T1, Serine/threonine-protein phosphatase 2A catalytic subunit alpha isoform; assay: Inhibition of PP2A (unknown origin)
[22] = molecular target: T2, Serine/threonine-protein phosphatase 5; assay: Activation of recombinant human PP5 (16 to 499 residues) Escherichia coli BL21 (DE3) using pNPP incubated for 60 mins
[23] = Inhibition of PP4 (unknown origin); set-up: species or system Homo sapiens
[24] = molecular target: T4, Serine/threonine-protein phosphatase 5 (Homo sapiens); assay: Activation of PP5 (unknown origin) assessed as fold increase in activity at > 100000 nM relative to control; details: filed as activator

With `C/C=C1/C(=O)N[C@H](OC(=O)O)[C@H](C)C(=O)N[C@@H](CCCNC(=N)N)C(=O)N[C@@H](/C=C/C(C)=C/[C@H](C)[C@H](Cc2ccccc2)OC)[C@H](C)C(=O)N[C@H](OC(=O)O)CCC(=O)N1C` the IC50 [1] was 0.04 nM, the IC50 [2] was > 1000 nM and the IC50 [3] was 1.7 nM. The IC50 [4] was > 1000 nM.

`CN1CCN(C(=O)C2C(C(=O)O)C3CC[C@@H]2O3)CC1` (single isomer, unassigned) showed an IC50 [5] of 2.4 nM and an IC50 [6] of 400 nM.

`C=C1C(=O)N[C@H](C)C(=O)N[C@@H](CC(C)C)C(=O)N[C@@H](C(=O)O)[C@H](C)C(=O)N[C@@H](CCCNC(=N)N)C(=O)N[C@@H](/C=C/C(C)=C/[C@H](C)[C@H](Cc2ccccc2)OC)[C@H](C)C(=O)N[C@@H](C(=O)O)CCC(=O)N1C` [MICROCYSTIN-LR] (R[Adda][d(γGlu)][NMeDha][dA]L[dAsp(3S-Me)]-OH; lactam N-7) showed an IC50 [7] of 0.1 nM, an IC50 [8] of 10 nM and an IC50 [9] of 200 nM. For the same compound, the IC50 [10] was 1 nM and the IC50 [11] was 0.15 nM.

`CCCCCCCCc1ccc(CCC(N)(CO)CO)cc1` showed an Activity (Homo sapiens) of 175%.

In the case of `C=C1[C@@H](O)[C@@H]2O[C@]3(CC[C@H](/C=C/[C@H](C)[C@@H]4CC(C)=C[C@@]5(OC(C[C@@](C)(O)C(=O)O)CC[C@H]5O)O4)O3)CC[C@H]2O[C@@H]1[C@@H](O)C[C@H](C)[C@H]1O[C@@]2(CCCCO2)CC[C@H]1C` (some centres undefined), the IC50 [7] is reported as 0.94 nM, the IC50 [8] is reported as 0.23 nM and the IC50 [12] is reported as > 1000 nM. The IC50 [10] was 3.5 nM, the IC50 [13] was 1 nM and the IC50 [11] was 0.1 nM.

For `COC[C@@H]([C@H](O)[C@H](O)C(=O)NCC[C@H](C)c1nc(/C=C/C[C@@H]2O[C@]3(C[C@@H](O)[C@@H]2C)O[C@H]([C@H](C[C@H](O)[C@H](C)[C@H](O)[C@H](C)/C=C(C)/C(C)=C/C=C/C(C)=C\C#N)OC)[C@H](OP(=O)(O)O)C3(C)C)co1)N(C)C` [CALYCULIN A], the IC50 [1] was 1.5 nM, the IC50 [14] was 0.2 nM and the IC50 [15] was 10 nM. For the same compound, the IC50 [6] was 0.25 nM, the IC50 [16] was 3 nM and the IC50 [4] was > 1000 nM.

For `Nc1ccc(-c2nc3ccc(-c4nc5ccc(N)cc5[nH]4)cc3[nH]2)cc1`, the inhibition [17] was 40%.

In the case of `O=S(=O)(N[C@@H]1CCC[C@H](N2c3ccccc3Oc3ccccc32)[C@H]1O)c1ccc(OC(F)(F)F)cc1`, the GI50 (NCI-H358) is reported as 5 10^3nM.

For `C=CC[C@@H]1/C=C(\C)C[C@H](C)C[C@H](OC)[C@H]2O[C@@](O)(C(=O)C(=O)N3CCCC[C@H]3C(=O)O[C@H](/C(C)=C/[C@@H]3CC[C@@H](O)[C@H](OC)C3)[C@H](C)[C@@H](O)CC1=O)[C@H](C)C[C@@H]2OC` [TACROLIMUS ANHYDROUS], the IC50 [18] was 0.4 nM.

With `C=C/C(=C/C(=O)C[C@H](C)C[C@@H](C)CC[C@H](O)[C@H](C)C(=O)C[C@@H](O)[C@@H](C)[C@@H](C)OC(=O)C[C@@H](O)C1=C(C)C(=O)OC1=O)CC` the IC50 [14] was 44.4 nM, the IC50 [19] was 11.9 nM and the IC50 [3] was 0.4 nM. For the same compound, the IC50 [4] was 17500 nM.

For `C[C@@]12C(=O)OC(=O)[C@]1(C)[C@H]1CC[C@@H]2O1` [CANTHARIDIN], the IC50 [5] was 1700 nM, the IC50 [16] was 400 nM and the IC50 [9] was > 500000 nM. For the same compound, the IC50 [10] was 600 nM, the IC50 [20] was 50 nM and the IC50 [13] was 8000 nM. The IC50 [21] was 160 nM.

Compound `O=C(O)CCCCCCCCCCCC[C@@H]1C=CCC1` [CHAULMOOGRIC ACID] has an EC50 [22] of 130000 nM.

`CCCCC/C=C\C/C=C\C/C=C\C/C=C\CCCC(=O)O` [ARACHIDONIC ACID] showed an EC50 [22] of 78000 nM.

For `C[C@@](O)(/C=C/[C@H]1CC=CC(=O)O1)[C@@H](C[C@@H](O)\C=C/C=C\C=C\CO)OP(=O)(O)O` [FOSTRIECIN], the IC50 [14] was 3 nM, the IC50 [19] was > 10000 nM and the IC50 [4] was > 100000 nM.

In the case of `CO[C@H]([C@H](O)CC(=O)[C@@H](C)[C@@H](O)CC[C@@H](C)[C@@H]1O[C@]2(CC[C@@H](C)[C@H](CC[C@H](C)C(C)=O)O2)CC[C@@H]1C)[C@H](OC(=O)C[C@@H](O)C1=C(C)C(=O)OC1=O)C(C)C` [TAUTOMYCIN], the IC50 [1] is reported as 5.3 nM, the IC50 [8] is reported as 0.038 nM and the IC50 [9] is reported as > 1000 nM. The IC50 [23] was 0.4 nM and the IC50 [10] was 10 nM.

Work on `COc1ccc(-c2nc(Cc3ccc(Cl)cc3)no2)cc1OC` yielded a fold change (FC) [24] of 4.
